Reference: paper PMC6407917, “Identification of GSK3186899/DDD853651 as a Preclinical Development Candidate for the Treatment of Visceral Leishmaniasis” (Journal of Medicinal Chemistry, 2018)

Columns and labels:
Assay in all cases: biochemical
Parameters in all cases: species or system HEK293/K-562/placenta mixed human extract; Kinobeads chemoproteomic competition binding, quantified by TMT LC-MS/MS, dose response up to 20 uM
MAP3K3 = MAP3K3 (Homo sapiens, UniProt Q99759)
MAP2K5 = MAP2K5 (Homo sapiens, UniProt Q13163)
LIMK1 = LIMK1 (Homo sapiens, UniProt P53667)
CDK10 = CDK10 (Homo sapiens, UniProt Q15131)
CAMK4 = CAMK4 (Homo sapiens, UniProt Q16566)
CAMK4, sequence (Q16566 whole entry): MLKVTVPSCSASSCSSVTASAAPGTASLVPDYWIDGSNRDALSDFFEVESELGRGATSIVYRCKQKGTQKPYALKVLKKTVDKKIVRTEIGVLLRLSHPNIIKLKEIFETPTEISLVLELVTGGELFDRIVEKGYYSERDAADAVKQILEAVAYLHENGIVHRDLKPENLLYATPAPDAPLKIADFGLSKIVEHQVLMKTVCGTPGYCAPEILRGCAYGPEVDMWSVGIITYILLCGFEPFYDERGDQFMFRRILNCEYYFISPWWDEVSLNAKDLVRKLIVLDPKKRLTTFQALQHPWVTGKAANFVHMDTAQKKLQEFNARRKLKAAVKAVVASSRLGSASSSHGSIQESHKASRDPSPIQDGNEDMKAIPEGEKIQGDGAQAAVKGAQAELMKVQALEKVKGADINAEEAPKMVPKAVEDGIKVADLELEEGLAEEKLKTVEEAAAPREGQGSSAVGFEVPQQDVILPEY

PKN2 = PKN2 (Homo sapiens, UniProt Q16513)
GAK = GAK (Homo sapiens, UniProt O14976)
NEK3 = NEK3 (Homo sapiens, UniProt P51956)
PIM1 = PIM1 (Homo sapiens, UniProt P11309)
BMPR1A = BMPR1A (Homo sapiens, UniProt P36894)
FLT4 = FLT4 (Homo sapiens, UniProt P35916)
AURKB = AURKB (Homo sapiens, UniProt Q96GD4)
MAP3K7 = MAP3K7 (Homo sapiens, UniProt O43318)
MAP3K7, sequence (O43318 whole entry): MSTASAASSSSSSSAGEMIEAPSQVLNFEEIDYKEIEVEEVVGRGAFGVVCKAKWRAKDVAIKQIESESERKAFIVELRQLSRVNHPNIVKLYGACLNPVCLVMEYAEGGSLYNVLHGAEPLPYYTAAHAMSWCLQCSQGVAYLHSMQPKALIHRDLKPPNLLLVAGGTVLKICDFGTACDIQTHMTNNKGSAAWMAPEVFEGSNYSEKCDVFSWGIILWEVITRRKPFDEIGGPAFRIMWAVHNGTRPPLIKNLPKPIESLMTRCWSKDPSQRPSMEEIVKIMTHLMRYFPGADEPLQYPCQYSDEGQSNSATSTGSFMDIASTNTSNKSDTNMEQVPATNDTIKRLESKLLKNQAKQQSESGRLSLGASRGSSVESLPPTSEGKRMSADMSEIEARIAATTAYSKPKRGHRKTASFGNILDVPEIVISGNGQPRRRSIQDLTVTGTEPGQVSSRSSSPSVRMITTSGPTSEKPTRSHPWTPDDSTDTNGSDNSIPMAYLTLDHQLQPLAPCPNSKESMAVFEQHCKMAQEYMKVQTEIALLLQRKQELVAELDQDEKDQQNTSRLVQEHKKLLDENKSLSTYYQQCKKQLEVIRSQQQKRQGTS

TBK1 = TBK1 (Homo sapiens, UniProt Q9UHD2)
TBK1, sequence (Q9UHD2 whole entry): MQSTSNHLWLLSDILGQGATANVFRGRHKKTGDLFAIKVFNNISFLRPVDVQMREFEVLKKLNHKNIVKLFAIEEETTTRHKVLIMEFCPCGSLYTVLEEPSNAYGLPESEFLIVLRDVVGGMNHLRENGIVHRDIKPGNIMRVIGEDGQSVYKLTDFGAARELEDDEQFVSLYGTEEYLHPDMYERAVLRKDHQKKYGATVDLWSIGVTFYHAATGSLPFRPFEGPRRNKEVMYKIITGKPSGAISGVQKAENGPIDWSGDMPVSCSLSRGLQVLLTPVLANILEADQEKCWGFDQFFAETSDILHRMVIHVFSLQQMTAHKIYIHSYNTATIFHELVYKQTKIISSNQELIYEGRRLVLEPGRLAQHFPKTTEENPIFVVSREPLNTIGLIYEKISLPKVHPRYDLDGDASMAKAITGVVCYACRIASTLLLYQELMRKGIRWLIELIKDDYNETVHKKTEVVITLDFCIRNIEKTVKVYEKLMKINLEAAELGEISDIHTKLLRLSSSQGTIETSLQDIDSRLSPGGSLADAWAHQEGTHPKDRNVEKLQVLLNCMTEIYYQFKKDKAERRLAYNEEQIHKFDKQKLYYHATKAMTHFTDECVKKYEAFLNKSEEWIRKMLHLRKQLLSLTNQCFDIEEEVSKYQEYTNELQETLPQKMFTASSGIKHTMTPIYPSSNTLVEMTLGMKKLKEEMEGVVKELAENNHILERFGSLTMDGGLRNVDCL

NTRK1 = NTRK1 (Homo sapiens, UniProt P04629)
MAP2K1 = MAP2K1 (Homo sapiens, UniProt Q02750)
TAOK2 = TAOK2 (Homo sapiens, UniProt Q9UL54)
TAOK2, sequence (Q9UL54 whole entry): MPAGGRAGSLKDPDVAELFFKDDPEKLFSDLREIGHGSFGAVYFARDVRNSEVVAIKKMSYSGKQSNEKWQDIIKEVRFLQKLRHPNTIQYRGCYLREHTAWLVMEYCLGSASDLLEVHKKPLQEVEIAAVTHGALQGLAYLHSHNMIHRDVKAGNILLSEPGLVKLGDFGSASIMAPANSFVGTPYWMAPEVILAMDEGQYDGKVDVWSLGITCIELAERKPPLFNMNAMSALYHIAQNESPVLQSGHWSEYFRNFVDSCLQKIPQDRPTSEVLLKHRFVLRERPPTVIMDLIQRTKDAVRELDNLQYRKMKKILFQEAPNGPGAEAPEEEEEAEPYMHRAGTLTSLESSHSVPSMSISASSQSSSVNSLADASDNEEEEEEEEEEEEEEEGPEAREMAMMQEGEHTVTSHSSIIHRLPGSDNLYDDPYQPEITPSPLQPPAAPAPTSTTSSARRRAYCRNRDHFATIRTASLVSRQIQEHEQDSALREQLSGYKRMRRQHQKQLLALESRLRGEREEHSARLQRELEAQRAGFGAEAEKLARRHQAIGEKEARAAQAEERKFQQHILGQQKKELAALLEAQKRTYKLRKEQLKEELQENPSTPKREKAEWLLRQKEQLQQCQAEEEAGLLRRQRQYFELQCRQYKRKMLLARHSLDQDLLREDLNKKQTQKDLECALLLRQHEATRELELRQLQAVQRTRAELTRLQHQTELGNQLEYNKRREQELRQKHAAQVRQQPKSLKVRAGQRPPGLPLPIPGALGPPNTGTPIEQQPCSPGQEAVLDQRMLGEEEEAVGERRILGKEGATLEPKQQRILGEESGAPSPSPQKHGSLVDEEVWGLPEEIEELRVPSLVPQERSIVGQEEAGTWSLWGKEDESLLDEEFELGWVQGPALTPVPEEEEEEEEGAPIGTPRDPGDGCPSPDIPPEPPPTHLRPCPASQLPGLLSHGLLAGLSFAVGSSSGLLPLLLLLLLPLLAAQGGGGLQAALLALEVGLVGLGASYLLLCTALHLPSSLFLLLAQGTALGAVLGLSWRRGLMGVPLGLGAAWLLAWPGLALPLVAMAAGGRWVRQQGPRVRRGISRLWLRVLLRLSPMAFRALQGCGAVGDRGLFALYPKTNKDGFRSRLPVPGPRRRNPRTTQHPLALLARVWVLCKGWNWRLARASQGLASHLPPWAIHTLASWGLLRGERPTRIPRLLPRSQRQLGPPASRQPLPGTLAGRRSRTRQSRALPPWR

DAPK3 = DAPK3 (Homo sapiens, UniProt O43293)
DAPK3, sequence (O43293 whole entry): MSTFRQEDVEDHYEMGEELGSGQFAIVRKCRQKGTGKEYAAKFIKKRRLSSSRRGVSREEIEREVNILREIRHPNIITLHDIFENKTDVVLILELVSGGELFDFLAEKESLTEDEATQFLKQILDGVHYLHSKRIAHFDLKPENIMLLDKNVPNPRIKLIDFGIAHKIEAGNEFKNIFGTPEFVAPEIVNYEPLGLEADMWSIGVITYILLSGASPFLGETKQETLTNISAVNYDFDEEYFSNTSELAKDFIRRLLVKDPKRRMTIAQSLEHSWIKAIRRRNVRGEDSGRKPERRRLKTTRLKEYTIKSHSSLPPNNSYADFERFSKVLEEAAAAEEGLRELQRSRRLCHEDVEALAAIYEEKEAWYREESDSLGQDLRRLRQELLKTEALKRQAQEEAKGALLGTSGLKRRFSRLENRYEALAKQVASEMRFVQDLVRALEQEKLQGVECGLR

EPHB2 = EPHB2 (Homo sapiens, UniProt P29323)
EPHB2, sequence (P29323 whole entry): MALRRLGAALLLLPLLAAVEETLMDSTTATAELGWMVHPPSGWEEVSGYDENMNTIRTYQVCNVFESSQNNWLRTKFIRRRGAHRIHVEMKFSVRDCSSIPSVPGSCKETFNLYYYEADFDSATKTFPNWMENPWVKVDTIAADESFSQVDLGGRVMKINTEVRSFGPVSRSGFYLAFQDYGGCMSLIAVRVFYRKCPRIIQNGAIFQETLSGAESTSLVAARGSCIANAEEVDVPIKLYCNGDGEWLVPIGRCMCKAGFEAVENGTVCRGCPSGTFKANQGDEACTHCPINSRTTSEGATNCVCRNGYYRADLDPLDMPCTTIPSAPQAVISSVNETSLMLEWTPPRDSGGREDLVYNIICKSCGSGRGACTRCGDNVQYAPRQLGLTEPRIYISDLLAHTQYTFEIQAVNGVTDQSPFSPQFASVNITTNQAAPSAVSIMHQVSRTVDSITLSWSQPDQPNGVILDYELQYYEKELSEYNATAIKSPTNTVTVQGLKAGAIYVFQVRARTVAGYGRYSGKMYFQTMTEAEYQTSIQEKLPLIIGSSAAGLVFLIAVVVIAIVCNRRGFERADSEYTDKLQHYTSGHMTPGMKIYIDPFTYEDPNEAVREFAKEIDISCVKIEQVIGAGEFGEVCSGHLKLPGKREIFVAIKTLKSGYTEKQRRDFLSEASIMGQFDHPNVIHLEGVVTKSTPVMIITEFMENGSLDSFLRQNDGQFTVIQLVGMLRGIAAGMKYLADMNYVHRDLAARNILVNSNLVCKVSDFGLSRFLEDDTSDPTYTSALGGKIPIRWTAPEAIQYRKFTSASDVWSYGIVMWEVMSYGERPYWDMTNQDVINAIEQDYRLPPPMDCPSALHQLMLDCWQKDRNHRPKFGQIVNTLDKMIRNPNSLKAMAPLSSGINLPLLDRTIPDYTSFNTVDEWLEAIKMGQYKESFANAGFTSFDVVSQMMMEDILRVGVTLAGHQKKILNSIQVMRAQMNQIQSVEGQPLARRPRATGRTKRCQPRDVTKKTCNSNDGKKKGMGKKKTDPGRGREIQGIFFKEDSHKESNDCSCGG

MAPK8 = MAPK8 (Homo sapiens, UniProt P45983)
STRADA = STRADA (Homo sapiens, UniProt Q7RTN6)
STRADA, sequence (Q7RTN6 whole entry): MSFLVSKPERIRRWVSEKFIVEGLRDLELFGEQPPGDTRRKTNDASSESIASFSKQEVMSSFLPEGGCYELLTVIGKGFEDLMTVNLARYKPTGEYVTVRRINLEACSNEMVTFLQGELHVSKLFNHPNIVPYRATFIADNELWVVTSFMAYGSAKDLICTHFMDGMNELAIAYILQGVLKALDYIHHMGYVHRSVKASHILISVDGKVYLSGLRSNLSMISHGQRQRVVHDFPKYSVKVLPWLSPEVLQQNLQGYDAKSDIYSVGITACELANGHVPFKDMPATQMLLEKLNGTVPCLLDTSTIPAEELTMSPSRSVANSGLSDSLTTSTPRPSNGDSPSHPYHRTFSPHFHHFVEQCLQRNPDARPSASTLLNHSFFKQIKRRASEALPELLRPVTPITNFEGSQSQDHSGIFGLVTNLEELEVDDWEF

IC50 (MAP3K3): ≥ 20 µM
IC50 (MAP2K5): ≥ 20 µM
IC50 (LIMK1): ≥ 20 µM
IC50 (CDK10): 2.6 µM
IC50 (CAMK4): ≥ 20 µM
IC50 (PKN2): ≥ 20 µM
IC50 (GAK): 9.9 µM
IC50 (NEK3): ≥ 20 µM
IC50 (PIM1): ≥ 20 µM
IC50 (BMPR1A): ≥ 20 µM
IC50 (FLT4): ≥ 20 µM
IC50 (AURKB): ≥ 20 µM
IC50 (MAP3K7): ≥ 20 µM
IC50 (TBK1): ≥ 20 µM
IC50 (NTRK1): ≥ 20 µM
IC50 (MAP2K1): ≥ 20 µM
IC50 (TAOK2): 5.2 µM
IC50 (DAPK3): ≥ 20 µM
IC50 (EPHB2): ≥ 20 µM
IC50 (MAPK8): ≥ 20 µM
IC50 (STRADA): ≥ 20 µM
Compound: COc1ccccc1-c1n[nH]c2nc(N[C@H]3CC[C@H](NS(=O)(=O)CCC(F)(F)F)CC3)nc(OC)c12 [compound 31, 3,3,3-Trifluoro-N-(trans-4-((4-methoxy-3-(2-methoxyphenyl)-1H-pyrazolo[3,4-d]pyrimidin-6-yl)amino)cyclohexyl)propane-1-sulfonamide]
